# Measurements taken from patent US5948931A (priority 1997, dated 1999).
# Structures can show the parent of a compound that is named as a salt. Where two headings read alike, the source gives them in different places.
# How the values were obtained:
# [1] = about pH 5-8, preferably about pH 6-7
# [2] = Stability / hydrolysis-fragmentation of E-16 (anilinium salt E-19) in water; format: physicochemical; details: for half-life: read-out: t1/2 of decomposition in H2O (converted)
# Experimental: Stability of E-19. These experiments were carried out in 5 mm glass NMR tubes at 22° C., concentration of E-4 0.1% (w/v).
# [3] = Kinetic measurements of hydrolysis (release of p-nitrophenoxide), effect of Mg2+; format: physicochemical; details: for enhancement of hydrolysis rate by MgCl2 (factor): 0.2 M MgCl2, pH 8.5, 25° C.
# Description: Kinetic Measurements of the Hydrolysis of E-19.
# [4] = Kinetics of hydrolysis of PNHDA, dependence on pH and Ni2+; format: physicochemical; parameters: K / K': unit not given here
# Experimental: The rates of hydrolysis of p-nitrophenyl(hydroxyimino)-(dihydroxyphosphinyl)acetate (16) were determined with Shimadzu UV-260 spectrophotometer by monitoring appearance of thep-nitrophenol at 400 nm (pH 6-11) and 317 nm (pH 4-5) and disappearance of reactant (16) at 217 nm (pH 4-5). The product spectra were quantitatively identified with those of equivalent concentration of p-nitrophenol under the same conditions. Reaction mixture pH values were measured. at 25 and 50° C. with a Beckman Model 71 pH meter. For non-metal ion-assisted reactions, a few buffer solutions were prepared with EDTA (2×10^-5) as a precaution against trace metal ions in the buffer and salts, but the same results were obtained as with the non-EDTA-containing buffers. Buffers employed were acetate (pH 4.2-5.3), N-ethyl morpholine (pH 6.7-7.8), and borate (pH 8-11). The buffer concentrations were 0.02-0.01 M (no significant catalytic effect). The ionic strength was 0.5-1.0 M, maintained with NaCl.
# To initiate a kinetic run, 50-100 μl of 19 stock solution (0.002 M in H2 O) was injected into 2-3 ml of reactant solution maintained at the desired temperature. The reactions followed pseudo-first-order kinetics for at least 3 half-lives. Kinetic parameters were calculated with a linear least-squares computer program.
# [5] = Stability of DCHA+ salts 3 heated in different solvents (31P NMR); format: physicochemical; details: conditions similar to refluxing AN
# Experimental: Stability of DCHA^+ Salts 3 Heated in Different Solvents. 40 mg 3 (E or Z) was heated in 5 ml of alcohol mixture, H2 O or acetonitrile. Reaction progress was monitored by ^31 P NMR spectroscopy.
smiles,measurement,setting,value
"O=C(O)/C(=N\O)P(=O)(O)O [E-7, α-(hydroxyimino)phosphonoacetic acid]",phosphorylating activity,[1],active phosphorylating agent
"COP(=O)(O)/C(=N/O)C(=O)O [E-8, (E)-(hydroxyimino)(hydroxymethoxyphosphinyl)acetic acid]",stability in water,"about pH 7, about 24 hours, room temperature",stable
same,methyl phosphate formed,pH 1.5,15%
same,methyl phosphorocyanidate formed,pH 1.5,85%
same,rate of E-8→Z-8→15 relative to dissociative fragmentation,pH 1.5,about 6 ×
same,decomposition,"pH 1.5, over 2.5 hours",quantitatively decomposed
same,reactivity,"pH 7, 25° C.",unreactive
"O=C(Oc1ccc([N+](=O)[O-])cc1)/C(=N\O)P(=O)(O)O [E-16, p-nitrophenyl (E)-(dihydroxyphosphinyl)(hydroxyimino)acetate]",phosphate among products,[2]; pH 6.5,92%
same,phosphorocyanidate among products,[2]; pH 6.5,8%
same,phosphate among products,[2]; pH 8.5,80%
same,phosphorocyanidate among products,[2]; pH 8.5,20%
same,"phosphoric acid and methyl phosphate, total","[2]; pH 8.5, 1:1 water:methanol",34%
same,formation of phosphorocyanidate,"[2]; pH 8.5, presence of Mg2+",not observed
same,hydrolysis rate in words,"[2]; pH 8.5, presence of Mg2+",faster
same,phosphate among products,"[2]; pH about 3, 52 hr",100%
same,degraded at 52 h,"[2]; water, pH 3, pH about 3, 52 hr, read-out: decomposition in H2O",< 4%
same,half-life,"[2]; water, pH 6.5",~30 h
same,half-life,"[2]; water, pH 8.5",~1 h
same,rate of release of p-nitrophenoxide vs. p-nitrophenyl acetate (times faster),[3]; 0.2 M MgCl2,40 ×
same,enhancement of hydrolysis rate by MgCl2 (factor),[3],2.5 (±0.1)
same,rate of release of p-nitrophenoxide vs. p-nitrophenyl acetate (times faster),"[3]; pH 8.5, 25° C., no Mg2+",20 ×
same,acceleration of p-nitrophenyl ester hydrolysis by (E)-oxime group,[3]; qualitative,several orders of magnitude
same,enhancement of rate by Ni2+ (factor),"[4]; 0.01M Ni2+, pH 4.2",3
same,enhancement of Kobsd by Ni2+ (factor),"[4]; 0.01M Ni2+, pH 6.5",28
same,enhancement of Kobsd by Ni2+ (factor),"[4]; 0.01M Ni2+, pH 7.4",20
same,Ni2+ concentration with saturation effect on Kobsd,[4]; constant pH,7 mM
same,K,"[4]; pH 4.2, Ni = 0.01M, 50° C.",0.015
same,log (k),"[4]; pH 4.2, Ni = 0.01M, 50° C.",-1.824
same,K,"[4]; pH 4.2, no metal ion, 50° C.",0.0049
same,log (k),"[4]; pH 4.2, no metal ion, 50° C.",-2.311
same,K,"[4]; pH 5.2, no metal ion, 50° C.",0.0156
same,K',"[4]; pH 5.2, no metal ion, 50° C.",0.0165
same,log (K'),"[4]; pH 5.2, no metal ion, 50° C.",-1.78
same,log (k),"[4]; pH 5.2, no metal ion, 50° C.",-1.807
same,K,"[4]; pH 6.5, Ni = 0.01M, 50° C.",0.31
same,log (k),"[4]; pH 6.5, Ni = 0.01M, 50° C.",-0.509
same,K,"[4]; pH 6.5, no metal ion, 50° C.",0.011
same,K',"[4]; pH 6.5, no metal ion, 50° C.",0.009
same,log (K'),"[4]; pH 6.5, no metal ion, 50° C.",-2.05
same,log (k),"[4]; pH 6.5, no metal ion, 50° C.",-1.959
same,K,"[4]; pH 7.4, Ni = 0.01M, 50° C.",1.127
same,K',"[4]; pH 7.4, Ni = 0.01M, 50° C.",1.1
same,log (K'),"[4]; pH 7.4, Ni = 0.01M, 50° C.",0.041
same,log (k),"[4]; pH 7.4, Ni = 0.01M, 50° C.",0.052
same,K,"[4]; pH 7.4, no metal ion, 50° C.",0.0563
same,K',"[4]; pH 7.4, no metal ion, 50° C.",0.0605
same,log (K'),"[4]; pH 7.4, no metal ion, 50° C.",-1.22
same,log (k),"[4]; pH 7.4, no metal ion, 50° C.",-1.249
same,K,"[4]; pH 8.5, no metal ion, 25° C.",0.052
same,K',"[4]; pH 8.5, no metal ion, 25° C.",0.05635
same,log (K'),"[4]; pH 8.5, no metal ion, 25° C.",-1.249
same,log (k),"[4]; pH 8.5, no metal ion, 25° C.",-1.288
same,K,"[4]; pH 9, no metal ion, 25° C.",0.101
same,K',"[4]; pH 9, no metal ion, 25° C.",0.101
same,log (K'),"[4]; pH 9, no metal ion, 25° C.",-0.996
same,log (k),"[4]; pH 9, no metal ion, 25° C.",-0.997
same,K,"[4]; pH 9.5, no metal ion, 25° C.",0.33
same,K',"[4]; pH 9.5, no metal ion, 25° C.",0.33
same,log (K'),"[4]; pH 9.5, no metal ion, 25° C.",-0.481
same,log (k),"[4]; pH 9.5, no metal ion, 25° C.",-0.481
same,K,"[4]; pH 10, no metal ion, 25° C.",0.629
same,K',"[4]; pH 10, no metal ion, 25° C.",0.603
same,log (K'),"[4]; pH 10, no metal ion, 25° C.",-0.22
same,log (k),"[4]; pH 10, no metal ion, 25° C.",-0.201
same,K,"[4]; pH 11, no metal ion, 25° C.",1.2
same,K',"[4]; pH 11, no metal ion, 25° C.",1.249
same,log (K'),"[4]; pH 11, no metal ion, 25° C.",0.0966
same,log (k),"[4]; pH 11, no metal ion, 25° C.",0.079
same,hydroxide dependence of hydrolysis,[4]; pH<7,independent of hydroxide ion concentrations
same,hydroxide dependence of hydrolysis,[4]; pH>8,hydroxide ion catalyzed
same,slope of log Kobsd vs pH,[4]; pH>8,0.8
"O=C(Oc1ccc([N+](=O)[O-])cc1)/C(=N\O)P(=O)(O)O [E-19, Anilinium Salt of p-Nitrophenyl (E)-(Hydroxyimino)(dihydroxyphophinyl)acetate]",storage stability,"[2]; anilinium salt, storage",stable to storage
same,reaction order of hydrolysis,"[3]; pH 8.5, 25° C.",pseudo-first order
"COP(=O)(O)C(=NO)c1ccccc1 [methyl α-(hydroxyimino)benzylphosphonate anion, reference compound]",thermal stability,[5],thermally stable
"CC(=O)Oc1ccc([N+](=O)[O-])cc1 [p-nitrophenyl acetate, reference compound]",enhancement of hydrolysis rate by MgCl2 (factor),[3],not altered significantly
same,reaction order of hydrolysis,"[3]; pH 8.5, 25° C.",pseudo-first order
